≈ marks a conversion by molar mass, not a printed value.
Experiments:
[1] = test system: Mycobacterium tuberculosis; test: Antimycobacterial activity against Mycobacterium tuberculosis H37Rv by BACTEC radiometric growth assay; type: functional
Mycobacterium leprae [2] = test: (§1) Inhibition of PGL1 synthesis in Mycobacterium leprae infected Swiss Webster mouse macrophages assessed as decrease in [U-14C]PA incorporation at 20 uM preincubated for 4 days post infection followed by [U-14C]PA addition and measured after 7 days by liquid scintillation counter analysis relative to control; type: functional
Mycobacterium leprae [3] = test: Anti-leprotic activity against Mycobacterium leprae infected in CBA mouse assessed as number of Mycobacterium leprae in paw pads at 10 mg/kg administrated 5 times a week and measured 7.5 months post infection (reference value: 3.91 +/- 0.33 10^5); type: functional
Mycobacterium leprae [4] = test: Anti-leprotic activity against Mycobacterium leprae infected in CBA mouse assessed as number of Mycobacterium leprae in paw pads at 30 mg/kg administrated 5 times a week and measured 7.5 months post infection (reference value: 3.91 +/- 0.33 10^5); type: functional
Mycobacterium leprae [5] = test: as §1, with “2” for “20”; type: functional
Mycobacterium leprae [6] = test: as §1, with “0.2” for “20”; type: functional
[7] = test system: Mycolicibacterium smegmatis; test: Antimicrobial activity against Mycobacterium smegmatis incubated for 30 to 32 hrs under shaking condition relative to control; type: functional
[8] = test system: Mycolicibacterium smegmatis; test: Antimicrobial activity against Mycobacterium smegmatis incubated for 30 to 32 hrs under shaking condition; type: functional
Staphylococcus aureus = test: Antimicrobial activity against Staphylococcus aureus assessed as zone of inhibition incubated for 20 hrs by agar well diffusion assay; type: functional
Escherichia coli = test: Antimicrobial activity against Escherichia coli assessed as zone of inhibition incubated for 20 hrs by agar well diffusion assay; type: functional
[9] = test system: Mycolicibacterium smegmatis; test: Antimycobacterial activity against DDS sensitive Mycobacterium smegmatis ATCC 607 […]; type: functional
[10] = test system: Mycolicibacterium smegmatis; test: Antimycobacterial activity against DDS resistant Mycobacterium smegmatis ATCC 607 […]; type: functional
Mycobacterium leprae [11] = test: Anti-leprotic activity against Mycobacterium leprae infected in BALB/c mouse assessed as time delay in bacterial multiplication in footpad at 0.01 g/100g of diet administered via feed starting 60 or 75 day post infection up to 90 days by Shepard's kinetic method; type: functional
Plasmodium berghei = test: Antimalarial activity against Plasmodium berghei infected in albino mouse assessed survival against infection at 400 mg/kg, sc administered as single dose; type: functional
[12] = Drug excretion in rat urine at 400 mg/kg, sc administered as single dose measured after 30 days; type: ADME, organism-based; conditions: read-out: Drug excretion
[13] = Half life in rat at 400 mg/kg, sc administered as single dose; type: ADME, organism-based; conditions: in vivo
[14] = Drug concentration in rat blood at 400 mg/kg, sc administered as single dose; type: ADME, organism-based; conditions: in vivo
Rattus norvegicus = test: Effect of metallo-protein haemoglobin in rat assessed as peak methemoglobin level at 400 mg/kg, sc administered as single dose; type: ADME, organism-based; conditions: in vivo

## NNC(=O)c1ccncc1 [ISONIAZID]
[1]
  MIC: 0.1 to 0.4 mg/L (≈ 0.729 to 2.92 µM)
Mycobacterium leprae [2]
  inhibition at 20 µM: 29%

## CN(C)C(=S)Sc1c(C#N)cc([N+](=O)[O-])cc1[N+](=O)[O-]
Mycobacterium leprae [3]
  Activity: 0.83 ×10⁵ No_unit
Mycobacterium leprae [4]
  Activity: 0.77 ×10⁵ No_unit

## CC(C)/N=c1\cc2n(-c3ccc(Cl)cc3)c3ccccc3nc-2cc1Nc1ccc(Cl)cc1 [CLOFAZIMINE]
Mycobacterium leprae [5]
  inhibition at 2 µM: 94%
Mycobacterium leprae [6]
  inhibition at 0.2 µM: 70%

## Clc1ccc(Nc2cc3nc4ccccc4n(-c4ccc(Cl)cc4)c-3c/c2=N/CCCN2CCCC2)cc1
Mycobacterium leprae [5]
  inhibition at 2 µM: 98%
Mycobacterium leprae [6]
  inhibition at 0.2 µM: 26%

## CCn1cc(C(=O)N/N=C\c2ccc(C)cc2)c(=O)c2cc(F)c(N3CCN(C)CC3)cc21
[7]
  Activity: >30%
[8]
  MIC: 42.5 µM (≈ 19.1 µg/mL)

## C[C@@H](O)[C@H]1C(=O)N2C(C(=O)O)=C(SCCNC=N)O[C@H]12
Staphylococcus aureus
  diameter of the inhibition zone (DIZ): 28 mm
Escherichia coli
  diameter of the inhibition zone (DIZ): 31 mm

## Nc1ccc(S(=O)(=O)c2ccc(O)cc2)cc1
[9]
  MIC: 12 mg/L (≈ 48.1 µM)
[10]
  MIC: 2010 mg/L (≈ 8050 µM)
Mycobacterium leprae [11]
  Time: <10 days

## C[C@@H](O)[C@H]1C(=O)N2C(C(=O)O)=C(SCCNC=O)C[C@H]12
Staphylococcus aureus
  diameter of the inhibition zone (DIZ): 29 mm
Escherichia coli
  diameter of the inhibition zone (DIZ): 30 mm

## CN(C)C(=S)Sc1c([N+](=O)[O-])cc([N+](=O)[O-])nc1C#N
Mycobacterium leprae [3]
  Activity: 2.13 ×10⁵ No_unit
Mycobacterium leprae [4]
  Activity: 1.83 ×10⁵ No_unit

## CCn1cc(C(=O)N/N=C\c2c(Cl)cccc2Cl)c(=O)c2cc(F)c(N3CCN(C)CC3)cc21
[7]
  Activity: >30%
[8]
  MIC: 27 µM (≈ 13.6 µg/mL)

## C[C@@H](O)[C@H]1C(=N)N2C(C(=O)O)=C(SCCNC=N)C[C@H]12
Staphylococcus aureus
  diameter of the inhibition zone (DIZ): 25 mm
Escherichia coli
  diameter of the inhibition zone (DIZ): 27 mm

## CC(=O)Nc1ccc(S(=O)(=O)c2ccc(N)cc2)cc1 [MONO-N-ACETYL DAPSONE]
Plasmodium berghei
  Survival: 3.5 weeks
[9]
  MIC: 13.8 mg/L (≈ 47.5 µM)
[10]
  MIC: > 300 mg/L
[12]
  dose excreted at 720 h: 50%
[13]
  half-life: 32 days
[14]
  Drug uptake: 1.3 µg/mL
Rattus norvegicus
  Activity: 1.2 g/dL
Mycobacterium leprae [11]
  Time: 60 days
